From patent US8629277B2, “Styrenyl 1,2,4-oxadiazole compounds” (Piramal Enterprises Limited, priority 2010, dated 2014)

Assays:
Ba/F3 Bcr-Abl/WT [1] = biological target: T1, Ba/F3 Bcr-Abl/WT (Homo sapiens, UniProt P00519); assay: Cell proliferation and cytotoxicity CCK-8 assay; assay type: cell-based; conditions: imatinib sensitive cell line; CCK-8, 72 h; read-out: Inhibitory concentrations (IC50) Ba/F3 Bcr-Abl/WT
T1 construct: fused on or other part: P11274 (Breakpoint cluster region protein)
Description: Cell Proliferation and Cytotoxicity CCK-8 Assay:
Cell Counting Kit-8 (CCK-8) assay is a sensitive colorimetric assay for the determination of number of viable cells in cell proliferation and cytotoxicity assays. Cell Counting Kit-8 (CCK-8) utilizes Dojindo's highly water-soluble tetrazolium salt. The amount of the formazan dye generated by dehydrogenases in cells is directly proportional to the number of living cells.
The cell lines described in Table 1 were used to test the antiproliferative activity of the compounds of the present invention.
Cells were seeded at a density of ˜5×10^3 per well (0.09 mL) in a transparent 96-well tissue culture plate (NUNC, USA) and allowed to incubate at 37° C., 5% CO2 incubator for 2-6 h. Different concentrations of compounds of the present invention were added to the wells of the culture plate in triplicate. […] Plates were further incubated in an incubator at 37° C. in presence of 5% CO2 for 72 h. 10 μL of the CCK-8 solution was added to each well and plate was incubated for 1-4 h in the incubator. The absorbance was measured at 450 nm using a microplate reader. The percent inhibition and IC50 were calculated in comparison with control values.

Ba/F3 Bcr-Abl/E255K = biological target: T2, Ba/F3 Bcr-Abl/E255K (Homo sapiens, UniProt P00519, E255K, cells depend on it); assay: Cell proliferation and cytotoxicity CCK-8 assay; assay type: cell-based; conditions: mouse, 72 h
T2 construct: fused on or other part: P11274 (Breakpoint cluster region protein)

Ba/F3 Bcr-Abl/E255V = biological target: T3, Ba/F3 Bcr-Abl/E255V (Homo sapiens, UniProt P00519, E255V, cells depend on it); assay: Cell proliferation and cytotoxicity CCK-8 assay; assay type: cell-based; conditions: mouse, 72 h
T3 construct: fused on or other part: P11274 (Breakpoint cluster region protein)

Ba/F3 Bcr-Abl/F359V = biological target: T4, Ba/F3 Bcr-Abl/F359V (Homo sapiens, UniProt P00519, F359V, cells depend on it); assay: Cell proliferation and cytotoxicity CCK-8 assay; assay type: cell-based; conditions: mouse, 72 h
T4 construct: fused on or other part: P11274 (Breakpoint cluster region protein)

Ba/F3 Bcr-Abl/H396P = biological target: T5, Ba/F3 Bcr-Abl/H396P (Homo sapiens, UniProt P00519, H396P, cells depend on it); assay: Cell proliferation and cytotoxicity CCK-8 assay; assay type: cell-based; conditions: mouse, 72 h
T5 construct: fused on or other part: P11274 (Breakpoint cluster region protein)

Ba/F3 Bcr-Abl/H396R = biological target: T6, Ba/F3 Bcr-Abl/H396R (Homo sapiens, UniProt P00519, H396R, cells depend on it); assay: Cell proliferation and cytotoxicity CCK-8 assay; assay type: cell-based; conditions: mouse, 72 h
T6 construct: fused on or other part: P11274 (Breakpoint cluster region protein)

Ba/F3 Bcr-Abl/M244V = biological target: T7, Ba/F3 Bcr-Abl/M244V (Homo sapiens, UniProt P00519, M244V, cells depend on it); assay: Cell proliferation and cytotoxicity CCK-8 assay; assay type: cell-based; conditions: mouse, 72 h
T7 construct: fused on or other part: P11274 (Breakpoint cluster region protein)

Ba/F3 Bcr-Abl/Q252H = biological target: T8, Ba/F3 Bcr-Abl/Q252H (Homo sapiens, UniProt P00519, Q252H, cells depend on it); assay: Cell proliferation and cytotoxicity CCK-8 assay; assay type: cell-based; conditions: mouse, 72 h
T8 construct: fused on or other part: P11274 (Breakpoint cluster region protein)

Ba/F3 Bcr-Abl/Y253H = biological target: T9, Ba/F3 Bcr-Abl/Y253H (Homo sapiens, UniProt P00519, Y253H, cells depend on it); assay: Cell proliferation and cytotoxicity CCK-8 assay; assay type: cell-based; conditions: mouse, 72 h
T9 construct: fused on or other part: P11274 (Breakpoint cluster region protein)

Ba/F3 = assay: Flow cytometric analysis of apoptosis (PI staining); assay type: cell-based
Experimental: (§1) Effect of the Compounds of Present Invention in Bcr-Abl Mutated Imatinib Mesylate-Resistant Cell Lines on Cell Cycle and Apoptosis Using Flow Cytometry.
(§2) The assay was carried out as in reference, FEBS Letters, 2007, 581, 7, 1329-1334. […] At the end of incubation, cells were harvested by centrifugation at 1000 rpm for 10 minutes, washed with phosphate buffered saline (PBS) and gradually resuspended in 70% ice-cold ethanol (to facilitate the permeablisation of stains). Cell suspension was stored for a minimum period of 4 h before staining with propidium iodide (PI). Fixed cells were stained with PI (80 μg/mL) in presence of RNase A (50 μg/mL), and read on Becton Dickinson FACS Calibur (USA) for cell cycle analysis.

E255V = assay: as above; assay type: cell-based
Experimental: as §1, §2

T315I = assay: as above; assay type: cell-based
Experimental: as §1, §2

Y253 = assay: as above; assay type: cell-based
Experimental: as §1, §2

Ba/F3 Bcr-Abl/T315I = assay: In-vivo efficacy in imatinib-resistant xenograft model in SCID mice; conditions: 200 mpk b.i.d., p.o.
Experimental: Ba/F3 Bcr-Abl/WT cells and Ba/F3 Bcr-Abl/T315I cells were grown in RPMI1640 medium containing 10% fetal calf serum in 5% CO2 incubator at 37° C. Cells were pelleted by centrifugation at 1000-rpm for 10 minutes. Cells were resuspended in saline to get a count of 80-100×10^6 cells per mL, 0.2 mL of this cell suspension was injected by subcutaneous (s.c.) route in SCID mice. Mice were observed alternate days for palpable tumor mass. Once the tumor size reached a size of 5-7 mm in diameter, animals were randomized into respective treatment groups. Dose of control or test compound was administered every day. Tumor size was recorded at 2-5 day intervals. Tumor weight (mg) was estimated according to the formula for a prolate ellipsoid: {Length (mm)×[width (mm)^2]×0.5} assuming specific gravity to be one and π to be three. Tumor growth in compound treated animals is calculated as T/C (Treated/Control)×100% and Growth inhibition Percent (GI %) was [100−T/C %].

Ba/F3 Bcr-Abl/WT [2] = assay: In-vivo efficacy in imatinib-sensitive xenograft model in SCID mice; conditions: 200 mpk b.i.d., p.o.
Experimental: In-vivo efficacy testing of compounds of the present invention in imatinib resistant and imatinib sensitive tumor models was carried out according to the reference Cancer Research, 2002, 62, 7149-7153.
Cell lines Ba/F3 transfectants expressing full-length wild type imatinib sensitive (Ba/F3 Bcr-Abl/WT) or mutated imatinib resistant (Ba/F3 Bcr-Abl/T315I) were used in this study. These recombinant cell lines were licensed from Dr. Brian Druker's laboratory, Howard Hughes Medical Institute, Oregon Health and Science University Cancer Institute, Portland, Oreg., USA.
Required compound was weighed and admixed with 0.5% (w/v) carboxymethylcellulose (CMC) and triturated with Tween-20 (secundum artum) with gradual addition of water to make up the final concentration. Imatinib mesylate was used as a standard.
A group of 110 Severely Combined Immune-Deficient (SCID strain-CBySmn.CB17-Prkdc^scid/J, The Jackson Laboratory, Stock #001803) male mice, 5-6 weeks old, weighing ˜20 g, were used.
Ba/F3 Bcr-Abl/WT cells and Ba/F3 Bcr-Abl/T315I cells were grown in RPMI1640 medium containing 10% fetal calf serum in 5% CO2 incubator at 37° C. Cells were pelleted by centrifugation at 1000-rpm for 10 minutes. […] Tumor size was recorded at 2-5 day intervals. […] Tumor growth in compound treated animals is calculated as T/C (Treated/Control)×100% and Growth inhibition Percent (GI %) was [100−T/C %].

Structure (SMILES) | GI50 (Ba/F3 Bcr-Abl/WT [1]) [nM] | GI50 (Ba/F3 Bcr-Abl/E255K) [nM] | GI50 (Ba/F3 Bcr-Abl/E255V) [nM] | GI50 (Ba/F3 Bcr-Abl/F359V) [nM] | GI50 (Ba/F3 Bcr-Abl/H396P) [nM] | GI50 (Ba/F3 Bcr-Abl/H396R) [nM] | GI50 (Ba/F3 Bcr-Abl/M244V) [nM] | GI50 (Ba/F3 Bcr-Abl/Q252H) [nM] | GI50 (Ba/F3 Bcr-Abl/Y253H) [nM] | % Apoptosis by Flow Cytometry Analysis (Ba/F3; 3X IC50, 96 h time point) [%] | % Apoptosis by Flow Cytometry Analysis (Ba/F3; 5X IC50, 48 h time point) [%] | % Apoptosis by Flow Cytometry Analysis (Ba/F3; 5X IC50, 96 h time point) [%] | % Apoptosis by Flow Cytometry Analysis (E255V; 3X IC50, 96 h time point) [%] | % Apoptosis by Flow Cytometry Analysis (E255V; 5X IC50, 48 h time point) [%] | % Apoptosis by Flow Cytometry Analysis (E255V; 5X IC50, 96 h time point) [%] | % Apoptosis by Flow Cytometry Analysis (T315I; 3X IC50, 96 h time point) [%] | % Apoptosis by Flow Cytometry Analysis (T315I; 5X IC50, 48 h time point) [%] | % Apoptosis by Flow Cytometry Analysis (T315I; 5X IC50, 96 h time point) [%] | % Apoptosis by Flow Cytometry Analysis (Y253; 3X IC50, 96 h time point) [%] | % Apoptosis by Flow Cytometry Analysis (Y253; 5X IC50, 48 h time point) [%] | other results
CCCc1noc(C=Cc2ccc(O)c(O)c2)n1 [Compound of Example 3, 4-[2-(3-Propyl-[1,2,4]oxadiazol-5-yl)-vinyl]-benzene-1,2-diol] | < 10000 | 5400 | 2100 ± 750 | 2000 ± 420 | 2000 ± 980 | 2250 ± 770 | 2100 | 2600 ± 840 | 1700 ± 780 | 95 | 46 | 84 | 78 | 91.2 | 90.9 | 78 | 97.6 | 85 | 62 | 87.5 | % Apoptosis by Flow Cytometry Analysis (Y253; 5X IC50, 96 h time point): 94.9%; Tumor growth inhibition percent (% GI) Ba/F3 Bcr-Abl/T315I (Ba/F3 Bcr-Abl/T315I): 54%; Tumor growth inhibition percent (% GI) Ba/F3 Bcr-Abl/WT (Ba/F3 Bcr-Abl/WT [2]): 63%
Oc1ccc(C=Cc2nc(Cc3ccccc3)no2)cc1O [Compound of Example 4, 4-[2-(3-Benzyl-[1,2,4]oxadiazol-5-yl)-vinyl]-benzene-1,2-diol] | < 10000 | > 10000 | 4000 ± 1400 | 3000 ± 700 | 2600 ± 1200 | 3050 ± 70 | 2300 | 3650 ± 650 | 2500 ± 750 | 97 | 46 | 93 | 94.4 | 93 | 97.4 | 80.58 | 98.2 | 63.9 | 70.6 | 89 | % Apoptosis by Flow Cytometry Analysis (Y253; 5X IC50, 96 h time point): 96.6%; Tumor growth inhibition percent (% GI) Ba/F3 Bcr-Abl/T315I (Ba/F3 Bcr-Abl/T315I): 65%; Tumor growth inhibition percent (% GI) Ba/F3 Bcr-Abl/WT (Ba/F3 Bcr-Abl/WT [2]): 36%
